pEC50: −log10 of the molar value. Like-named read-outs stand apart in the source and are kept apart here.
Columns and labels:
FKBP = FKBP (Homo sapiens, UniProt P62942); assay: Ki test procedure: inhibition of peptidyl-prolyl isomerase (rotamase) activity, chymotrypsin-coupled assay; assay type: biochemical; conditions: apparent Ki
Description: Inhibition of the peptidyl-prolyl isomerase (rotamase) activity of the inventive compounds can be evaluated by known methods described in the literature (Harding, et al., Nature, 1989, 341:758-760; Holt et al. J. Am. Chem. Soc., 115:9923-9938). The cis-trans isomerization of an alanine-proline bond in a model substrate, N-succinyl-Ala-Ala-Pro-Phe-p-nitroanilide, is monitored spectrophotometrically in a chymotrypsin-coupled assay, which releases para-nitroanilide from the trans form of the substrate. The inhibition of this reaction caused by the addition of different concentrations of inhibitor is determined, and the data is analyzed as a change in first-order rate constant as a function of inhibitor concentration to yield the apparent Ki values.
In a plastic cuvette are added […] of ice cold assay buffer (25 mM HEPES, pH 7.8, 100 mM NaCl), […] of FKBP (2.5 mM in 10 mM Tris-Cl pH 7.5, 100 mM NaCl, 1 mM dithiothreitol), 25 mL of chymotrypsin (50 mg/ml in 1 mM HCl) and […] of test compound at various concentrations in dimethyl sulfoxide. The reaction is initiated by the addition of 5 mL of substrate (succinyl-Ala-Phe-Pro-Phe-para-nitroanilide, 5 mg/mL in 2.35 mM LiCl in trifluoroethanol).
The absorbance at 390 nm versus time is monitored for 90 seconds using a spectrophotometer and the rate constants are determined from the absorbance versus time data files.
The data for these experiments for representative compounds are presented in Table II under the column “Ki”.

[1] = test system: chick dorsal root ganglia; assay: Chick dorsal root ganglion cultures and neurite outgrowth; assay type: cell-based; conditions: neurite outgrowth, 48 hours after drug treatment, Table II (b), ranked potency, read-out: ED50, nMa
Experimental: Dorsal root ganglia were dissected from chick embryos of ten day gestation. Whole ganglion explants were cultured on thin layer Matrigel-coated 12 well plates with Liebovitz L15 plus high glucose media supplemented with 2 mM glutamine and 10% fetal calf serum, and also containing 10 μM cytosine β-D arabinofuranoside (Ara C) at 37° C. in an environment containing 5% CO2. Twenty-four hours later, the DRGs were treated with various immunophilin ligands. Forty-eight hours after drug treatment, the ganglia were visualized under phase contrast or Hoffman Modulation contrast with a Zeiss Axiovert inverted microscope. Photomicrographs of the explants were made, and neurite outgrowth was quantitated. Neurites longer than the DRG diameter were counted as positive, with total number of neurites quantitated per each experimental condition. Three to four DRGs are cultured per well, and each treatment was performed in duplicate.
The data for these experiments for representative compounds are presented in Table II under the column “ED50”.

Sequence of FKBP (P62942 whole entry): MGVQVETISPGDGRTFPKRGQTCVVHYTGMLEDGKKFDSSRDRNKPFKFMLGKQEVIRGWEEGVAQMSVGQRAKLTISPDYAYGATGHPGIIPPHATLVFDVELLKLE

Row | Molecule | Ki (FKBP; Table II (c), numerical) [nM] | pEC50 [1] | Ki (FKBP; Table II (a), ranked potency) [nM] | also measured
1 | 3,3-Diphenylpropyl (2S)-1-[(1,1,3,3-tetramethylbutyl)carbamoyl]-2-pyrrolidinecarbothioate [Compound 29] | 5150 | 6.70 to 7.29 |  | 
2 | 3,3-Diphenylpropyl (2S)-1-[(2,4-dimethoxyphenyl)carbamoyl]-2-pyrrolidinecarbothioate [Compound 33] |  |  | > 500 | 
3 | 3-(2,3,5-Trimethylphenyl)propyl 1-(1-adamantylcarbamoyl)-2-pyrrolidinecarbothioate [Compound 19] |  | 6.70 to 7.29 | 201 to 500 | 
4 | 3-(2,3,5-Trimethylphenyl)propyl 1-(cyclohexylcarbamoyl)-2-pyrrolidinecarbothioate [Compound 20] |  | 7.30 to 9.00 | 51 to 200 | 
5 | 3-(2-Fluorophenyl)propyl (2S)-1-(1-adamantylcarbamoyl)-2-pyrrolidinecarbothioate [Compound 22] |  | > 9.00 | 1 to 50 | 
6 | 3-(2-Fluorophenyl)propyl (2S)-1-(cyclohexylcarbamoyl)-2-pyrrolidinecarbothioate [Compound 23] |  | 7.30 to 9.00 | 1 to 50 | 
7 | 3-(3,4,5-Trimethoxyphenyl)propyl (2S)-1-(benzylcarbamoyl)-2-pyrrolidinecarbothioate [Compound 40] | 82 |  |  | 
8 | 3-(3,4,5-Trimethoxyphenyl)propyl (2S)-1-(hexylcarbamoyl)-2-pyrrolidinecarbothioate [Compound 39] | 31 |  |  | 
9 | 3-(3,5-Dimethoxyphenyl)propyl (2S)-1-{[(1S)-1-(1-naphthyl)ethyl]-carbamoyl}-2-pyrrolidinecarbothioate [Compound 28] | 8090 | > 9.00 |  | 
10 | 3-(3,5-Dimethoxyphenyl)propyl (2S)-1-{[(1S,2R)-2-phenyl-cyclopropyl]carbamoyl]-2-pyrrolidinecarbothioate [Compound 34] |  |  | > 500 | 
11 | 3-(3-Fluorophenyl)propyl (2S)-1-(Cyclohexylcarbamoyl)-2-pyrrolidinecarbothioate [Compound 21] |  | > 9.00 | 1 to 50 | 
12 | 3-(4-Methylphenyl)propyl (2S)-1-(1-adamantylcarbamoyl)-2-pyrrolidinecarbothioate [Compound 25] | 209 | 7.30 to 9.00 |  | 
13 | 3-(4-Methylphenyl)propyl (2S)-1-(cyclohexylcarbamoyl)-2-pyrrolidinecarbothioate [Compound 24] | 605 | 7.30 to 9.00 |  | 
14 | 3-(4-Methylphenyl)propyl (2S)-1-(tert-butylcarbamoyl)-2-pyrrolidinecarbothioate [Compound 26] | 739 | > 9.00 |  | 
15 | 3-Cyclohexylpropyl (2S)-1-(hexylcarbamoyl)-2-pyrrolidinecarbothioate [Compound 32] |  |  | > 500 | 
16 | 3-Cyclohexylpropyl (2S)-1-[(2,6-diisopropylphenyl)carbamoyl]-2-pyrrolidinecarbothioate [Compound 31] |  |  | > 500 | 
17 | 3-Phenylpropyl (2S)-1-(1-adamantylcarbamoyl)-2-pyrrolidinecarbothioate [Compound 36] |  |  | 201 to 500 | 
18 | 3-Phenylpropyl (2S)-1-(1-cyclohexylcarbamoyl)-2-pyrrolidinecarbothioate [Compound 17] |  | 6.70 to 7.29 |  | Ki (FKBP; Table II (a), ranked potency, listed as 4): 51 to 200 nM
19 | 3-Phenylpropyl (2S)-1-(1-cyclohexylcarbamoyl)-2-pyrrolidinecarbothioate [Compound 37] |  |  |  | Ki (FKBP; Table II (a), ranked potency, listed as 23): > 500 nM
20 | 3-Phenylpropyl (2S)-1-(1-pyrrolidinylcarbamoyl)-2-pyrrolidinecarbothioate [Compound 42] | 525 |  |  | 
21 | 3-Phenylpropyl (2S)-1-(dimethylcarbamoyl)-2-pyrrolidinecarbothioate [Compound 41] | 722 |  |  | 
22 | 3-Phenylpropyl (2S)-1-[(2,4-Dimethoxyphenyl)carbamoyl]-2-pyrrolidinecarbothioate [Compound 35] |  |  | > 500 | Ki (FKBP; Table II (c), numerical, listed as 21): 795 nM
23 | CCC(C)CNC(=O)N1CCC[C@H]1C(=O)SCCCc1cccnc1 (stereo partly drawn) [Compound 1, 3-(3-Pyridyl)-1-propylmercaptyl 2S-1-[(2-methylbutyl)carbamoyl]pyrrolidine-2-carboxylate] |  |  | 1 to 50 | pEC50 ([1]; Gallus gallus): > 9.00
24 | CCC(C)(C)NC(=O)N1CCC[C@H]1C(=O)SCCCc1cccnc1 [Compound 2] |  |  | 51 to 200 | pEC50 ([1]; Gallus gallus): 7.30 to 9.00
25 | O=C(SCCCc1cccnc1)[C@@H]1CCCN1C(=S)NC1CCCCC1 [Compound 7, 3-(3-pyridyl)-1-propylmercaptyl 2S-1-[(cyclohexyl)thiocarbamoyl]-pyrrolidine-2-carboxylate] |  | 7.30 to 9.00 | 51 to 200 | 
26 | O=C(SCCCc1ccccc1Cl)[C@@H]1CCCN1C(=O)NC1CCCCC1 [Compound 27] | 1490 | 7.30 to 9.00 |  | 
27 | O=C(SCCCc1ccccc1)[C@@H]1CCCN1C(=S)NC12CC3CC(CC(C3)C1)C2 [Compound 38] | 659 |  |  | 
28 | O=C(SCCCc1ccccc1)[C@@H]1CCCN1C(=O)N1CCOCC1 [Compound 43, 3-Phenylpropyl (2S)-1-(morphilinocarbamoyl)-2-pyrrolidinecarbothioate] | 3740 |  |  | 
29 | Phenethyl (2S)-N-(cyclohexylcarbamoyl)-2-pyrrolidinecarbothioate [Compound 18] |  | 7.30 to 9.00 | 51 to 200 | 
